Measured values taken from patent US12428408B2, “Fused heterocyclic mescaline derivatives” (Enveric Biosciences Canada Inc., priority 2022, dated 2025).
Read-outs that look alike come from different tables or passages of the source.

Columns and labels:
NET (h) = target: T1, NET (h) (Homo sapiens, UniProt P23975); test: Competition assay to measure binding affinity at norepinephrine transporter (NET); settings: test ligand 10 μM; [3H]nisoxetine 1 nM
T1 construct: host or cells: CHO cells

alpha2A (h) = target: T2, alpha2A (h) (Homo sapiens, UniProt P08913); test: Competition assay to measure binding affinity at alpha2A receptor; settings: test ligand 10 μM, [3H]RX 821002 1 nM; for inhibition at 10 µM: read-out: α-2A, percent of control-specific binding
T2 construct: host or cells: CHO cells
T2 sequence (P08913 1-465): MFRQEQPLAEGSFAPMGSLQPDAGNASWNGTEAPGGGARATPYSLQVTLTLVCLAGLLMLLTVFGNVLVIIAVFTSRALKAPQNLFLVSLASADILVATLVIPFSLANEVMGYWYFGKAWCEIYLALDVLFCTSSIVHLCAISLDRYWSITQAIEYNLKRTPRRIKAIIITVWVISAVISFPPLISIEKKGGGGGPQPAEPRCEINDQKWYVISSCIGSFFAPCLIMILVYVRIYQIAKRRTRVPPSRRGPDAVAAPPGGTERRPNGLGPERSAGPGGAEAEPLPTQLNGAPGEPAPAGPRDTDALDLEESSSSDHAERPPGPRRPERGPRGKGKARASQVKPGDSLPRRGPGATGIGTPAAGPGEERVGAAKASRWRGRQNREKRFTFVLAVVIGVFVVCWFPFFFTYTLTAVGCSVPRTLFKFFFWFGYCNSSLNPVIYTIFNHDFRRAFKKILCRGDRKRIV

DAT (h) = target: T3, DAT (h) (Homo sapiens, UniProt Q01959); test: Competition assay to measure binding affinity at dopamine transporter (DAT); settings: test ligand 10 μM; [3H]BTCP 4 nM
T3 construct: host or cells: CHO cells
T3 sequence (Q01959 whole entry): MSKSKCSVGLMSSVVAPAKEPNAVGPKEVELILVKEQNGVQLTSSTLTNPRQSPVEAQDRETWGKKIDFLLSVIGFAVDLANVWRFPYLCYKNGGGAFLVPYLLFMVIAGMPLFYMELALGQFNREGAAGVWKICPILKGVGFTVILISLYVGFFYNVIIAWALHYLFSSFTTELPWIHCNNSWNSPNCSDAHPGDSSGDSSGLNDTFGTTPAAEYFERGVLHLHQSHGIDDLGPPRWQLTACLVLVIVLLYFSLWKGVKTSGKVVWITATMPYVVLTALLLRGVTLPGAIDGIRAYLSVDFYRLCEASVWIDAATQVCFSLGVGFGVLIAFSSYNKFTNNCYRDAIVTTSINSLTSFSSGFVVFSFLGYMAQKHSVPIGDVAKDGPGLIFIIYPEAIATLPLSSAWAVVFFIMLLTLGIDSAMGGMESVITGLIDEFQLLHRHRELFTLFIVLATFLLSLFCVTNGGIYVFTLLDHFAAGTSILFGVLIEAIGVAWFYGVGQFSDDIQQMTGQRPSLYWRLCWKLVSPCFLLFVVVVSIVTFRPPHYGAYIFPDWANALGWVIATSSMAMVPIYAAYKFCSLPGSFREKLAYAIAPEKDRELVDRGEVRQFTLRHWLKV

[1] = test system: C57BL/6-Elite male and female mice; test: Head Twitch Response (HTR) assay; assay type: in vivo, mouse; settings: i.p. 6 mg/kg, 15-to-30-minute window following drug administration
5-HT1A receptor [2] = target: T4, 5-HT1A receptor (Homo sapiens, UniProt P08908); test: 5-HT1A receptor radioligand competition assay (SPA); assay type: binding; settings: for 5-HT1A receptor binding, binding curve in words: FIGS. 35C-35L
T4 construct: purchased Perkin Elmer 6110501400UA
T4 sequence (P08908 1-422): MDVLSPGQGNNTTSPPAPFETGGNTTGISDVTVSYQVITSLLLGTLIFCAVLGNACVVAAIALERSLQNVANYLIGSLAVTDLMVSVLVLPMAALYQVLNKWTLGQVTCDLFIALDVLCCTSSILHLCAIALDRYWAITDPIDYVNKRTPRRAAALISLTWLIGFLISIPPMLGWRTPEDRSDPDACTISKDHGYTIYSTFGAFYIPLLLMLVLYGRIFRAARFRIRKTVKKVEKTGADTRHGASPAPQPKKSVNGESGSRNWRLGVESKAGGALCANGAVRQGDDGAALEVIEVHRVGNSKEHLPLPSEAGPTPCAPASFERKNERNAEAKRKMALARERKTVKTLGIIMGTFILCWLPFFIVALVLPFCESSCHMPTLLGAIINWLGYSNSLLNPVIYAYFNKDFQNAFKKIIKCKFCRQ

5-HT1B (h) = target: T5, 5-HT1B (h) (Homo sapiens, UniProt P28222); test: Competition assay to measure binding affinity at 5-HT1B receptor; settings: test ligand 10 μM; [3H]GR125743 1 nM
T5 construct: host or cells: Chem-1 (RBL) cells
T5 sequence (P28222 whole entry): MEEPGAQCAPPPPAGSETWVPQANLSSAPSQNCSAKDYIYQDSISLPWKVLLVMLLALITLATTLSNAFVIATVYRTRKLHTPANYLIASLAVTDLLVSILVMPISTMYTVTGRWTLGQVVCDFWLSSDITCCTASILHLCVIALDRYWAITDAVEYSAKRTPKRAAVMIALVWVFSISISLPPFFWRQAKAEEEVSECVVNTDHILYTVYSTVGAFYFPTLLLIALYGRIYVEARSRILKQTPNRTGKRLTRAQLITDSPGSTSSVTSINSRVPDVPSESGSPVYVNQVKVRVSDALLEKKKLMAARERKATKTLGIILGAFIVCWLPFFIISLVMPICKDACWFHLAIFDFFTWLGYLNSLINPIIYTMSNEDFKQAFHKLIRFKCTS

MT1 (ML1A) (h) = target: T6, MT1 (ML1A) (h) (Homo sapiens, UniProt P48039); test: Competition assay to measure binding affinity at MT1 receptor; settings: test ligand 10 μM; [125I]2-iodomelatonin 0.01 nM
T6 construct: host or cells: CHO cells
T6 sequence (P48039 whole entry): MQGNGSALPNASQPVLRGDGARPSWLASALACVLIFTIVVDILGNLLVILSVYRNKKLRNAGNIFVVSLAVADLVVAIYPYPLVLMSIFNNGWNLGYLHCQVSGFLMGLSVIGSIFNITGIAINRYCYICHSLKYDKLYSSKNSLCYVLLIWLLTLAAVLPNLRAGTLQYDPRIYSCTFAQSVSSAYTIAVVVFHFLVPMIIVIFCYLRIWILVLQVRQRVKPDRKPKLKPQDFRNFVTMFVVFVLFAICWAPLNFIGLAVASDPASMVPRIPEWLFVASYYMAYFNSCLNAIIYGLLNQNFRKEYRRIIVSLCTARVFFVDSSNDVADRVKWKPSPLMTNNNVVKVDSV

D3 (h) = target: T7, D3 (h) (Homo sapiens, UniProt P35462); test: Competition assay to measure binding affinity at D3 receptor; settings: test ligand 10 μM; [3H]methylspiperone […]
T7 construct: host or cells: CHO cells
T7 sequence (P35462 whole entry): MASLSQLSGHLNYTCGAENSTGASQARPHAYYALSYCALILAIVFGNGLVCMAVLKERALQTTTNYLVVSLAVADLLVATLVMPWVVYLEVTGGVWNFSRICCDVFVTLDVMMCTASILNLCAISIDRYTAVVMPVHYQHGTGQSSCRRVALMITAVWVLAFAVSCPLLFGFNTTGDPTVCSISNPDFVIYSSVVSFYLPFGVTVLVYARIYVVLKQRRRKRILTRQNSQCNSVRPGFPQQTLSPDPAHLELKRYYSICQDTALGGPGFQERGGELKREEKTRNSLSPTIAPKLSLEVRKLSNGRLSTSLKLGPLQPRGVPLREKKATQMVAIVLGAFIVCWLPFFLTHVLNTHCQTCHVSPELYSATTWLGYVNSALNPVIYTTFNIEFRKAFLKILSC

[3] = target: T8, human serotonin transporter (SERT) (Homo sapiens, UniProt P31645); test: biochemical; assay type: binding
T8 construct: purchased PerkinElmer RBHSTM400UA
T8 sequence (P31645 whole entry): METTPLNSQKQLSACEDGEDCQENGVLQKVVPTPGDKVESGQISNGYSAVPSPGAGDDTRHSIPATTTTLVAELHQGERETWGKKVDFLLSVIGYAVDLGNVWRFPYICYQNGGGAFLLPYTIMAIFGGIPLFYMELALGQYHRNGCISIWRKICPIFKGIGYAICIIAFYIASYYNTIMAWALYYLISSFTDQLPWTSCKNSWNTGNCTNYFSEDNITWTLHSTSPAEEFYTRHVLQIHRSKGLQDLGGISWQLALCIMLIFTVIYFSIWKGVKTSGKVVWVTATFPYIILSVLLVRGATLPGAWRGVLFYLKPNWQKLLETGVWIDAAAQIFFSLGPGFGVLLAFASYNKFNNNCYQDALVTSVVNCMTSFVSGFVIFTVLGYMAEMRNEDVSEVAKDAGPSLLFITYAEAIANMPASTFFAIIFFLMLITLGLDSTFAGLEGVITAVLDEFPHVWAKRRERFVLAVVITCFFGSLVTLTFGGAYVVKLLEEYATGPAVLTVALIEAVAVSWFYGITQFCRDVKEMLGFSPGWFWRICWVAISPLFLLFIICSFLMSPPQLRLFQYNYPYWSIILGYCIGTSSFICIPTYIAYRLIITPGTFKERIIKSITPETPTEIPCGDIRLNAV

5-HT2C (h) = target: T9, 5-HT2C (h) (Homo sapiens, UniProt P28335); test: Competition assay to measure binding affinity at 5-HT2C receptor; settings: test ligand 10 μM; [125I](±)DOI 0.1 nM
T9 construct: host or cells: HEK-293 cells
T9 sequence (P28335 33-458): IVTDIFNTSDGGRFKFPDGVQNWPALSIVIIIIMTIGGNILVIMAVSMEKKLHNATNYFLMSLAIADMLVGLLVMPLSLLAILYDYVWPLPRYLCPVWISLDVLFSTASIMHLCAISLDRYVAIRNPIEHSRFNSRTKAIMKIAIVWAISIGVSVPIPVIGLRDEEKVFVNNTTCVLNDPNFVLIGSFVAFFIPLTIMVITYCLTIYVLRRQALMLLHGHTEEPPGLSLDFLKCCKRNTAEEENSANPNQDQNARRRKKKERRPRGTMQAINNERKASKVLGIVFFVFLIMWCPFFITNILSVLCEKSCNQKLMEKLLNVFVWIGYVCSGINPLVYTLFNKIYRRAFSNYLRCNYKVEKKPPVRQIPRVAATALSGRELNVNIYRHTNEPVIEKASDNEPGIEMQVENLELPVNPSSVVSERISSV

5-HT1D (r) = target: T10, 5-HT1D (r) (Rattus norvegicus, UniProt P28565); test: Competition assay to measure binding affinity at 5-HT1D receptor; settings: test ligand 10 μM; [3H]serotonin 1 nM
T10 construct: host or cells: CHO cells
T10 sequence (P28565 whole entry): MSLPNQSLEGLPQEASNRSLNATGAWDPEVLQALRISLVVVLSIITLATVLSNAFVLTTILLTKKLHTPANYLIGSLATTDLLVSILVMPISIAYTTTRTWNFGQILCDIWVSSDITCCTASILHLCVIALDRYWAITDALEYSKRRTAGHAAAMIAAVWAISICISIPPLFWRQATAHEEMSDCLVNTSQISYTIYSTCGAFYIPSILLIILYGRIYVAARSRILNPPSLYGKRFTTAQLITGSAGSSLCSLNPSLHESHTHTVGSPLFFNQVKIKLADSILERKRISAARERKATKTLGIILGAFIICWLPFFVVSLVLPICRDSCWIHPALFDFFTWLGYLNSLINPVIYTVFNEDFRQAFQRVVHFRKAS

5-HT2B (h) = target: T11, 5-HT2B (h) (Homo sapiens, UniProt P41595); test: Competition assay to measure binding affinity at 5-HT2B receptor; settings: test ligand 10 μM; [3H]mesulergine 2 nM
T11 construct: host or cells: CHO cells
T11 sequence (P41595 whole entry): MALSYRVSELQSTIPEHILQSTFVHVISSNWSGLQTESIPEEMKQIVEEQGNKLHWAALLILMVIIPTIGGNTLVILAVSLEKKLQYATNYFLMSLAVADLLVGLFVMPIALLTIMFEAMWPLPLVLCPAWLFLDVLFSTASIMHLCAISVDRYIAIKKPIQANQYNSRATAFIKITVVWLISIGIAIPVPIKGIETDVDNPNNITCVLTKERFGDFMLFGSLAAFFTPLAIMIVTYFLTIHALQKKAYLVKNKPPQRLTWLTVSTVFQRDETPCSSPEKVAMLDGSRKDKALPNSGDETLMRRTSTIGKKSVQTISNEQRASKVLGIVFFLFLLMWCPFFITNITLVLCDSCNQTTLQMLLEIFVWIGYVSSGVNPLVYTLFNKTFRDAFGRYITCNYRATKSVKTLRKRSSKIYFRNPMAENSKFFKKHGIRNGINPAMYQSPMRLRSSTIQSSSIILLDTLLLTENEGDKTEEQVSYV

D2 (h) = target: T12, D2 (h) (Homo sapiens, UniProt P14416); test: Competition assay to measure binding affinity at D2L receptor; settings: test ligand 10 μM; [3H]methylspiperone 0.3 nM
T12 construct: host or cells: HEK-293 cells
T12 sequence (P14416 whole entry): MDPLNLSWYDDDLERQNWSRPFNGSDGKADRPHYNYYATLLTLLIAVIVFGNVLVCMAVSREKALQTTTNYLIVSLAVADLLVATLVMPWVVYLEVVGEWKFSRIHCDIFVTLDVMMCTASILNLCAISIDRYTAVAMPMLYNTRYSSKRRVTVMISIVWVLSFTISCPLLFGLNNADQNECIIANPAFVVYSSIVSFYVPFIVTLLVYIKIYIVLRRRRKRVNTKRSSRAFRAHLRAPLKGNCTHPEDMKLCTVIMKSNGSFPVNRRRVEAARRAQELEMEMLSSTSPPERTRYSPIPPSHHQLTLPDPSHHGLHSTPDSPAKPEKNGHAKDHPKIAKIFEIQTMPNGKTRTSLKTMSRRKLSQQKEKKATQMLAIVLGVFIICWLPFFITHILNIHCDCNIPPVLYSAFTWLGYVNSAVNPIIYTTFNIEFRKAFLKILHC

[4] = test system: C57BL/6-Elite male and female mice; test: Ear-Scratch Response (ESR) assay; assay type: in vivo, mouse; settings: i.p. 6 mg/kg, 15-to-30-minute window following drug administration
5-HT7 (h) = target: T13, 5-HT7 (h) (Homo sapiens, UniProt P34969); test: Competition assay to measure binding affinity at 5-HT7 receptor; settings: test ligand 10 μM; [3H]LSD 4 nM
T13 construct: host or cells: HEK-293 cells
T13 sequence (P34969 whole entry): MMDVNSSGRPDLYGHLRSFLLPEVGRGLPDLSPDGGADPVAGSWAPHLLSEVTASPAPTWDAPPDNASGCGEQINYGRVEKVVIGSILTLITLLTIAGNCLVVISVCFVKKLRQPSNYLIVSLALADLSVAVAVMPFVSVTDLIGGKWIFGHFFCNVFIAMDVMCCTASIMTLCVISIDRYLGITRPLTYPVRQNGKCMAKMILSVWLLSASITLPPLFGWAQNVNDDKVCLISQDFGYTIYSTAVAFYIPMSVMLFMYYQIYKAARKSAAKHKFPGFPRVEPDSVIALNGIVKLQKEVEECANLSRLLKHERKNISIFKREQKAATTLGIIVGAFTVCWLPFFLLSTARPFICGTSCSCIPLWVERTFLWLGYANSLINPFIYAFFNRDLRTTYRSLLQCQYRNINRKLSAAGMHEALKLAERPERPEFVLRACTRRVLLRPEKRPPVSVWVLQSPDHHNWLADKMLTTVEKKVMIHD

5-HT2A receptor = 5-HT2A receptor (Homo sapiens, UniProt P28223); test: 5-HT2A receptor radioligand competition assay (SPA)
5-HT1A receptor [5] = target: T4, 5-HT1A receptor; test: Functional 5-HT1A receptor cAMP assay in CHO-K1/5-HT1A/Gα15 cells; assay type: cell-based
[6] = competition with 0.5 nM 8-hydroxy-DPAT [3H], test compound 3 nM to 1 mM, read-out: 5-HT1A, Ki

T1 sequence (P23975 whole entry): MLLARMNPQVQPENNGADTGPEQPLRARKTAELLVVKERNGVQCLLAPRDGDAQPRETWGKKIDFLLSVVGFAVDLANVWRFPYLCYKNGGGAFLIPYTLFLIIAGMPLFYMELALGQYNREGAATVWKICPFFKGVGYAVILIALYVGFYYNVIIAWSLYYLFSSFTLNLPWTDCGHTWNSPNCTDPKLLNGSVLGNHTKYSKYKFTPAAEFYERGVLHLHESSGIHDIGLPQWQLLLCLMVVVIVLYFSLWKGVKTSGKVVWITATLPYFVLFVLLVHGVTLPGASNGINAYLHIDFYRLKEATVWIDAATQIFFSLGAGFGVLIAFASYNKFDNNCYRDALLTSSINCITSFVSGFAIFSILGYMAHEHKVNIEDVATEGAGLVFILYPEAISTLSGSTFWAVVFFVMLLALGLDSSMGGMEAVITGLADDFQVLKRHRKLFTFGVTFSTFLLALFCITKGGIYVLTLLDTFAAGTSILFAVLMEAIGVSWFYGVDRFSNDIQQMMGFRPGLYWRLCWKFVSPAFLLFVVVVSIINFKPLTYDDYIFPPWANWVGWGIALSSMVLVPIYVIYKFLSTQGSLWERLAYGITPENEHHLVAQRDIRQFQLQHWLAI

| Structure (SMILES) | NET, percent of control-specific binding (NET (h)) | inhibition at 10 µM (alpha2A (h)) | DAT, percent of control-specific binding (DAT (h)) | incidences of HTR relative to vehicle-treated control mice [1] | 5-HT1A receptor binding, binding curve in words (5-HT1A receptor [2]) | HT1B, percent of control-specific binding (5-HT1B (h)) | MT1, percent of control-specific binding (MT1 (ML1A) (h)) | D3, percent of control-specific binding (D3 (h)) | Ki [3] | SERT binding, binding curve in words [3] | HT2C, percent of control-specific binding (5-HT2C (h)) | HT1D, percent of control-specific binding (5-HT1D (r)) | HT2B, percent of control-specific binding (5-HT2B (h)) | D2, percent of control-specific binding (D2 (h)) | incidences of ESR relative to vehicle-treated control mice [4] | HT7, percent of control-specific binding (5-HT7 (h)) | Ki (5-HT2A receptor) | Ki (5-HT1A receptor [2]; [6]) | also measured |
| --- | --- | --- | --- | --- | --- | --- | --- | --- | --- | --- | --- | --- | --- | --- | --- | --- | --- | --- | --- |
| CCCOc1c(OC)cc(CCN)cc1OC [proscaline, reference compound] | −9% | 40% | −2% | Elevated incidences of HTR | binding to 5-HT1A receptor | −13% | 3% | 4% | 251 µM | bind SERT to varying degrees | 97% | 25% | 85% | −11% | Elevated incidences of ESR |  |  |  |  |
| CC(Cc1ccc2c(c1)OCO2)NC1CCC1 (centres unmarked) [A(I)] | 62% | 35% | 98% | Elevated incidences of HTR |  | 0% | 2% | 24% | 1.1 µM |  | 28% | 0% | 37% | 15% | Elevated incidences of ESR | 5% | 517 µM |  | Ki (5-HT1A receptor [2]): 20.8 µM |
| c1cc2c(cc1CCN1CCOCC1)OCO2 [A(VII)] | 0% | 5% | 18% | Elevated incidences of HTR |  | 0% | 0% | 4% | 29.9 µM |  | 4% | 0% | 12% | 3% | Elevated incidences of ESR | 14% | 6 µM | 24.1 µM |  |
| CCOc1c(OC)cc(CCN)cc1OC [escaline] | 6% |  | 0% | Elevated incidences of HTR | binding to 5-HT1A receptor | 0% | 0% | 0% |  | bind SERT to varying degrees | 95% | 42% | 81% | 5% | Elevated incidences of ESR | 16% |  | 12.4 µM | α-2A, percent of control-specific binding (alpha2A (h)): 45%; Ki ([3]; read-out: SERT, Ki): 113 µM; Ki (5-HT2A receptor; read-out: 5-HT2A, Ki, competition with 1 nM [3H]ketanserin, test compound 3 nM to 1 mM): 61 µM |
| c1cc(CCN2CCCC2)c2c(c1)OCO2 [A(XXIX)] | 2% | 57% | 49% |  |  | 3% | 1% | 22% | 10.1 µM |  | 87% | 44% | 48% | 0% |  | 48% | 8 µM | 0.0132 µM | EC50 (5-HT1A receptor [5]): 0.352 µM |
